Laboratory results reported in US5156956A, “Transgultaminase” (Ajinomoto Co., Inc., priority 1987, dated 1992).
Residues, ends and D or L forms follow the SMILES beside them. *: point of attachment. Cbz = O=C(OCc1ccccc1)*

Key:
BTG-1 [1] = target: T1, BTG-1 (Streptomyces mobaraensis, UniProt P81453); assay: Substrate specificity: synthetic substrates with hydroxylamine; type: biochemical, Streptoverticillium mobaraense IFO 13819; conditions: for Reactivity of substrate with BTG-1 (relative, Table 1): substrate 5 mM, with hydroxylamine; for Substrate specificity (%) BTG-1: Table 4
T1 construct: BTGase is dissolved in the culture solution and can be harvested from the culture filtrate; endogenous in cells; host or cells: Streptoverticillium mobaraense IFO 13819 (natural producer; purified from culture filtrate)
T1 sequence (P81453 77-407): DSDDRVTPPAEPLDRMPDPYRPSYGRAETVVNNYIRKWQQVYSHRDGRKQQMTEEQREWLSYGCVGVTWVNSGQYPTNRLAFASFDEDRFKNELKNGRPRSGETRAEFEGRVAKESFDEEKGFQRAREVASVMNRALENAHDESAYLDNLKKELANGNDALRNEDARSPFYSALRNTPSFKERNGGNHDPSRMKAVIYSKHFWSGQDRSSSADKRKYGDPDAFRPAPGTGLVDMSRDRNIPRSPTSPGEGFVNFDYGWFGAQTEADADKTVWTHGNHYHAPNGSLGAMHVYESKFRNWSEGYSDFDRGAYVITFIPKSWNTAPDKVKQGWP
Description: (§1) Measurement of the activity of BTGase is carried out by performing a reaction using benzyloxycarbonyl-L-glutaminyl glycine and hydroxylamine as substrates in the absence of Ca^2+, forming an iron complex with the resulting hydroxamic acid in the presence of trichloroacetic acid, measuring absorption at 525 nm and determining the amount of hydroxamic acid by a calibration curve to calculate the activity. The BTGase activity is measured by the method described below, unless otherwise indicated.
(§2) To 0.05 ml of an enzyme solution is added 0.5 ml of Reagent A and they are mixed with each other. After reacting at 37° C. for 30 minutes, Reagent B is added thereto to discontinue the reaction and form an Fe complex. Thereafter, absorbance is measured at 525 nm. […] Separately, a calibration curve is prepared using L-glutamic acid γ-monohydroxamio acid instead of the enzyme solution, and the amount of hydroxamic acid produced is determined by the difference in absorbance described above. An enzyme activity which produces 1 μmol of hydroxamic acid per 1 minute is defined as 1 unit.
(§3) Using each BTGase, reactions of various synthetic substrates with hydroxylamine were examined. […] In this case, the concentration of various synthetic substrates is 5 mM. In the table, CBZ, Gln, Gly and Asn are abbreviations for benzyloxycarbonyl group, glutaminyl group, glycyl group and asparaginyl group, respectively.

BTG-2 [2] = target: T2, BTG-2 (Streptomyces griseocarneus, UniProt A0ABX7RSJ1); assay: as above; type: biochemical, Streptoverticillium griseocarneum IFO 12776; conditions: for Reactivity of substrate with BTG-2 (relative, Table 1): substrate 5 mM, with hydroxylamine; for Substrate specificity (%) BTG-2: Table 4
T2 construct: Ca2+-independent; made as pre-pro-protein
Description: as §1, §2, §3

BTG-3 [3] = target: T3, BTG-3 (Streptomyces cinnamoneus, UniProt Q8GR90); assay: as above; type: biochemical; conditions: for Reactivity of substrate with BTG-3 (relative, Table 1): substrate 5 mM, with hydroxylamine; for Substrate specificity (%) BTG-3: Table 4
T3 construct: Ca2+-independent; made as pre-pro-protein
T3 sequence (Q8GR90 86-416): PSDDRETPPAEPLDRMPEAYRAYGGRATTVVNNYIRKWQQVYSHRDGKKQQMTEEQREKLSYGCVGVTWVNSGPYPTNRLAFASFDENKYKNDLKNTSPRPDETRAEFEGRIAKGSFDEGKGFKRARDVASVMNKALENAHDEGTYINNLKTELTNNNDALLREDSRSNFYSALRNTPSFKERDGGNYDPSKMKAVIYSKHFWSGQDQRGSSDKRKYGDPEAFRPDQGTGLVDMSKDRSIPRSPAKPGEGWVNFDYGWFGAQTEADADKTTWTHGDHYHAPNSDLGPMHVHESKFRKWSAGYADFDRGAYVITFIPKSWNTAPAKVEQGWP
Description: as §1, §2, §3

BTGase = assay: Substrate specificity, statement on all BTGases; type: biochemical, Streptoverticillium; conditions: substrate 5 mM, with hydroxylamine
Description: as §3

BTG-1 [4] = target: T1, BTG-1; assay: biochemical; design: species or system Streptoverticillium mobaraense IFO 13819
Description: as §1, §2

BTG-2 [5] = target: T2, BTG-2; assay: biochemical; design: species or system Streptoverticillium griseocarneum IFO 12776
Description: as §1, §2

BTG-3 [6] = target: T3, BTG-3; assay: biochemical
Description: as §1, §2

[7] = target: T4, MTGase (transglutaminase of guinea pig liver) (UniProt P08587); assay: Substrate specificity: synthetic substrates; type: biochemical; conditions: Table 4
T4 construct: from tissue; host or cells: guinea pig liver
T4 sequence (P08587 1-690): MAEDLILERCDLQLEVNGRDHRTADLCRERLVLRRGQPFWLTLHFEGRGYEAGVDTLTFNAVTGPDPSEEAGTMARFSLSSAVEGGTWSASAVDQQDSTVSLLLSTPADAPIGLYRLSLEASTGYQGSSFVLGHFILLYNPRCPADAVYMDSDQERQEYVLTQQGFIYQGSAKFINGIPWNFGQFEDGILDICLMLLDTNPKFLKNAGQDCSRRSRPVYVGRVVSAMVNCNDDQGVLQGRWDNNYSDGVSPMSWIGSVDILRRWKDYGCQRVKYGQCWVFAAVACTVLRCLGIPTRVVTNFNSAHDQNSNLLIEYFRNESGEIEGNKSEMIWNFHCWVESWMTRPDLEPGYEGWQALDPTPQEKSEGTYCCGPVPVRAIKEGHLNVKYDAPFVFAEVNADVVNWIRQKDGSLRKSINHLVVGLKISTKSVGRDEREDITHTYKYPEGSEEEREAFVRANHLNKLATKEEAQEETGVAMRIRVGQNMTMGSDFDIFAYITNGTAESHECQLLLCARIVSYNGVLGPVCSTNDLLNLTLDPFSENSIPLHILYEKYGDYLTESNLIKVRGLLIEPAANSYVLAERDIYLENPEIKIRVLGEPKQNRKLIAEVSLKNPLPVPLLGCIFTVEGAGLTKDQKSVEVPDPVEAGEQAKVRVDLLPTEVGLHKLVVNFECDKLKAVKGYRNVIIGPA
Description: Next, properties of BTGases are compared to those of guinea pig liver-derived transglutaminase. The guinea pig liver-derived transglutaminase was prepared by the method described in Published Unexamined Japanese Patent Application No. 149645/83. As will be apparent from Tables 4 and 5, various differences in enzymological properties are noted between transglutaminase of guinea pig liver (hereafter referred to as MTGase) which has been mainly investigated heretofore and BTGases derived from actinomycetes; in particular, differences are noted in temperature stability, molecular weight, isoelectric point and substrate specificity. Further, a difference is noted in that the BTGases of the present invention act in the presence and absence of Ca^2+. Therefore, the respective enzymes of the present invention are different from MTGase in their properties.

BTG-1 [8] = target: T1, BTG-1; assay: Influence of metal ions on activity; type: biochemical, Streptoverticillium mobaraense IFO 13819; conditions: metal ion 1 mM; None = 100; 30 min
Description: as §1, §2

BTG-2 [9] = target: T2, BTG-2; type: biochemical, Streptoverticillium griseocarneum IFO 12776; conditions: metal ion 1 mM; None = 100; 30 min
Description: as §1, §2

BTG-3 [10] = target: T3, BTG-3; assay: Influence of metal ions on activity; type: biochemical; conditions: metal ion 1 mM; None = 100; 30 min
Description: as §1, §2

[11] = inhibitor 1 mM, 25° C. for 30 minutes, None = 100

SMILES | Reactivity of substrate with BTG-1 (relative, Table 1) (BTG-1 [1]) | Reactivity of substrate with BTG-2 (relative, Table 1) (BTG-2 [2]) | Reactivity of substrate with BTG-3 (relative, Table 1) (BTG-3 [3]) | Substrate specificity (%) BTG-1 (BTG-1 [1]) [%] | Substrate specificity (%) BTG-2 (BTG-2 [2]) [%] | Substrate specificity (%) BTG-3 (BTG-3 [3]) [%] | Substrate specificity (%) MTGase [7] [%] | BTG-1 (%) activity with metal ion (BTG-1 [8]) [%] | BTG-2 (%) activity with metal ion (BTG-2 [9]) [%] | BTG-3 (%) activity with metal ion (BTG-3 [10]) [%] | other results
NCC(=O)N[C@@H](CCC(N)=O)C(=O)NCC(=O)O [Gly--Gln--Gly, glycylglutaminyl glycine] (H-Gly-Gln-Gly-OH) | 0 | 0 | 0 | – | – | – | – | – | – | – | Reactivity of synthetic substrate with the BTGases (in words) (BTGase): No BTGase reacts
O=C(O)CN(CCN(CC(=O)O)CC(=O)O)CC(=O)O [EDTA] | – | – | – | – | – | – | – | – | – | – | inhibition at 1000 µM (BTG-1 [4]; read-out: BTG-1 (%) activity with inhibitor): 102%; inhibition at 1000 µM (BTG-2 [5]; read-out: BTG-2 (%) activity with inhibitor): 98%; inhibition at 1000 µM (BTG-3 [6]; read-out: BTG-3 (%) activity with inhibitor): 99%
NC(=O)CC[C@H](NC(=O)OCc1ccccc1)C(=O)N[C@@H](CCC(N)=O)C(=O)NCC(=O)O [CBZ--Gln--Gln--Gly] (Cbz-Gln-Gln-Gly-OH) | 38 | 39 | 35 | 38 | 39 | 35 | 288 | – | – | – | –
NC(=O)CC[C@H](NC(=O)CNC(=O)OCc1ccccc1)C(=O)NCC(=O)NCC(=O)O [CBZ--Gly--Gln--Gly--Gly] (Cbz-GQGG-OH) | 8 | 12 | 11 | 8 | 12 | 11 | 126 | – | – | – | –
[Cl-].[Cl-].[Sr+2] [SrCl2] | – | – | – | – | – | – | – | 100 | 101 | 100 | –
CCOC(=O)CNC(=O)[C@H](CCC(N)=O)NC(=O)OCc1ccccc1 [CBZ--Gln--Gly--OEt] (Cbz-Gln-Gly-OEt) | 63 | 44 | 42 | 63 | 44 | 42 | 122 | – | – | – | –
[Cl][Fe]([Cl])[Cl] [FeCl3] | – | – | – | – | – | – | – | 96 | 104 | 106 | –
[Cl-].[Cl-].[Co+2] [CoCl2] | – | – | – | – | – | – | – | 103 | 103 | 103 | –
O=S(=O)(F)Cc1ccccc1 [PMSF, phenylmethylsulfonyl fluoride] | – | – | – | – | – | – | – | – | – | – | BTG-1 (%) activity with inhibitor (BTG-1 [4]; [11]): 104%; BTG-2 (%) activity with inhibitor (BTG-2 [5]; [11]): 95%; BTG-3 (%) activity with inhibitor (BTG-3 [6]; [11]): 101%
[Cl-].[Na+] [NaCl] | – | – | – | – | – | – | – | 99 | 102 | 101 | –
